# Experimental data reported in patent US20090118286A1, “Heterobicyclic Acrylamides” (Bayer Cropscience AG, priority 2005, published 2009).
# Where two headings read alike, the source gives them in different places.
# Assays:
# [1] = log P determination by HPLC (EEC Directive 79/831 Annex V.A8, gradient method); format: physicochemical; details: for chromatographic logP: HPLC, gradient method, acetonitrile/0.1% strength aqueous phosphoric acid or formic acid
# [2] = system: caterpillars of the army worm (Spodoptera frugiperda); experiment: Spodoptera frugiperda test, SPODFR spray treatment; format: in vivo; details: foliar, 168 h, 500 g a. i./ha, spray treatment of maize leaf discs, 7 d, read-out: % 7 d (effect in %, caterpillars killed)
# Procedure: [table] To produce a suitable preparation of active compound, 1 part by weight of active compound is mixed with the stated amounts of solvents and emulsifier, and the concentrate is diluted with emulsifier-containing water to the desired concentration. Discs of maize leaves (Zea mays) are sprayed with a preparation of active compound of the desired concentration and, after drying, populated with caterpillars of the army worm (Spodoptera frugiperda). After the desired period of time, the effect in % is determined. 100% means that all caterpillars have been killed; 0% means that none of the caterpillars have been killed.
smiles,measurement,setting,value
CC(NC(=O)/C=C/c1c(-c2ccc(F)cc2)nc2sc(C(F)(F)F)nn12)C(F)(F)F (stereo not shown) [Example 0317],chromatographic logP,[1]; read-out: Physical data: log P,3.72
same,pest or weed control at 500 g/ha,[2],100%
O=C(/C=C/c1c(-c2ccc(F)cc2Cl)nc2sc(C(F)(F)F)nn12)NCCC(F)(F)F [Example 0604],chromatographic logP,[1]; read-out: Physical data: log P,3.51
same,pest or weed control at 500 g/ha,[2],100%
C[C@@H](NC(=O)/C=C/c1c(-c2ccc(F)cc2Cl)nc2sc(C(F)(F)F)nn12)C(F)(F)F [Example 0608],chromatographic logP,[1]; read-out: Physical data: log P,3.77
same,pest or weed control at 500 g/ha,[2],100%
CC(C)C(C)NC(=O)/C=C/c1c(-c2ccccc2Cl)nc2sc(C(F)(F)Cl)nn12 (stereo not shown) [Example 0740],chromatographic logP,[1]; read-out: Physical data: logP,3.97
same,pest or weed control at 500 g/ha,[2],100%
CC(NC(=O)/C=C/c1c(-c2ccccc2F)nc2sc(C(F)(F)F)nn12)C(F)(F)F (stereo not shown) [Example 0459],chromatographic logP,[1]; read-out: Physical data: log P,3.55
same,pest or weed control at 500 g/ha,[2],100%
CCCC(C)NC(=O)/C=C/c1c(-c2ccccc2F)nc2sc(C(F)(F)F)nn12 (stereo not shown) [Example 0452],chromatographic logP,[1]; read-out: Physical data: log P,3.68
same,pest or weed control at 500 g/ha,[2],100%
Cc1ccccc1-c1nc2sc(C(F)(F)F)nn2c1/C=C/C(=O)NC(C)C(F)(F)F (stereo not shown) [Example 0246],chromatographic logP,[1]; read-out: Physical data: log P,3.76
same,pest or weed control at 500 g/ha,[2],100%
O=C(/C=C/c1c(-c2ccc(F)cc2Cl)nc2sc(C(F)(F)F)nn12)NCc1ccc(F)cc1 [Example 0614],pest or weed control at 500 g/ha,[2],100%
COc1ccc(-c2nc3sc(C(F)(F)F)nn3c2/C=C/C(=O)NC(C)C)cc1OC [Example 0652],Physical data: logP,[1],2.85
COc1ccc(-c2nc3sc(C(F)(F)F)nn3c2/C=C/C(=O)NC2CCC2)cc1OC [Example 0657],Physical data: logP,[1],3.03
COCc1nn2c(/C=C/C(=O)NC3CCC(C(F)(F)F)CC3)c(-c3ccccc3Cl)nc2s1 (stereo not shown) [Example 0821],Physical data: logP,[1],3.4
CC(C)(C)NC(=O)/C=C/c1c(-c2cccc(Cl)c2)nc2sc(C(F)(F)F)nn12 [Example 0080],Physical data (logP),[1],4.27
CCC(C)NC(=O)/C=C/c1c(-c2ccccc2Cl)nc2sc(COC)nn12 (stereo not shown) [Example 0825],Physical data: logP,[1],2.71
O=C(/C=C/c1c(-c2ccc(F)cc2)nc2sc(C(F)(F)F)nn12)NC1CCCCC1 [Example 0307],Physical data: log P,[1],3.99
COc1ccc(-c2nc3sc(C(F)(F)F)nn3c2/C=C/C(=O)NC2CC2)cc1OC [Example 0656],Physical data: logP,[1],2.64
COCc1nn2c(/C=C/C(=O)NCC(F)(F)C(F)(F)F)c(-c3ccccc3Cl)nc2s1 [Example 0836],Physical data: logP,[1],3.17
CCN(C)C(=O)/C=C/c1c(-c2ccc(Cl)cc2Cl)nc2sc(C(F)(F)F)nn12 [Example 0569],Physical data: log P,[1],3.82
CNC(=O)/C=C/c1c(-c2ccc(Cl)cc2)nc2sc(C(F)(F)F)nn12 [Example 0005],Physical data (logP),[1],2.88
CC(C)(C)CNC(=O)/C=C/c1c(-c2ccccc2Cl)nc2sc(C(C)(C)C)nn12 [Example 0797],Physical data: logP,[1],4.06
CC(C)(C)c1nn2c(/C=C/C(=O)NCC(F)(F)C(F)(F)F)c(-c3ccccc3Cl)nc2s1 [Example 0814],Physical data: logP,[1],4.08
CCCC(C)NC(=O)/C=C/c1c(-c2ccc(Cl)cc2)nc2sc(C(F)(F)F)nn12 (stereo not shown) [Example 0017],Physical data (logP),[1],4.32
CCN(C)C(=O)/C=C/c1c(-c2cccc(C(F)(F)F)c2)nc2sc(C(F)(F)F)nn12 [Example 0430],Physical data: log P,[1],4.05
CC(NC(=O)/C=C/c1c(-c2ccc(Cl)cc2Cl)nc2sc(C(F)(F)F)nn12)c1ccccn1 (stereo not shown) [Example 0555],Physical data: log P,[1],2.84
O=C(/C=C/c1c(-c2cccc(Cl)c2)nc2sc(C(F)(F)F)nn12)NCC1CC1 [Example 0086],Physical data (logP),[1],3.81
CCC(CC)NC(=O)/C=C/c1c(-c2ccc(F)cc2)nc2sc(C(F)(F)F)nn12 [Example 0357],Physical data: log P,[1],3.81
Cc1cn2c(/C=C/C(=O)NCC(C)C)c(-c3ccccc3Cl)nc2s1 [Example 0860],Physical data: logP,[1],2.64
CC(C)(C)CNC(=O)/C=C/c1c(-c2ccccc2Cl)nc2sc(-c3ccc(C(F)(F)F)cc3)nn12 [Example 0841],Physical data: logP,[1],4.68
Cc1ccccc1-c1nc2sc(C(F)(F)F)nn2c1/C=C/C(=O)NC1CCC1 [Example 0234],Physical data: log P,[1],3.41
COCc1nn2c(/C=C/C(=O)NC3CCCCC3)c(-c3ccccc3Cl)nc2s1 [Example 0832],Physical data: logP,[1],3.12
COCc1nn2c(/C=C/C(=O)NCC(F)(F)F)c(-c3ccccc3Cl)nc2s1 [Example 0822],Physical data: logP,[1],2.72
C=CCN(C)C(=O)/C=C/c1c(-c2cccc(Cl)c2)nc2sc(C(F)(F)F)nn12 [Example 0137],Physical data (logP),[1],4.0
CCC(NC(=O)/C=C/c1c(-c2ccc(OC)c(OC)c2)nc2sc(C(F)(F)F)nn12)c1ccccc1 (stereo not shown) [Example 0684],Physical data: logP,[1],3.76
CC(ONC(=O)/C=C/c1c(-c2ccccc2Cl)nc2sc(C(F)(F)F)nn12)c1ccccc1 (racemic) [Example 0213],Physical data (logP),[1],3.72
O=C(/C=C/c1c(-c2ccc(Cl)cc2)nc2sc(C(F)(F)F)nn12)NC1CCC1 [Example 0012],Physical data (logP),[1],3.81
O=C(/C=C/c1c(-c2ccccc2Cl)nc2sc(-c3ccc(C(F)(F)F)cc3)nn12)NCC(F)(F)F [Example 0844],Physical data: logP,[1],4.21
O=C(O)/C=C/c1c(-c2ccc(F)cc2Cl)nc2sc(C(F)(F)F)nn12 [VA-9],Physical data (logP),[1],2.84
Cc1csc2nc(-c3ccccc3Cl)c(/C=C/C(=O)Nc3ccc(OC(F)(F)F)cc3)n12 [Example 0900],Physical data: logP,[1],3.66
CON(C)C(=O)/C=C/c1c(-c2cccc(C(F)(F)F)c2)nc2sc(C(F)(F)F)nn12 [Example 0433],Physical data: log P,[1],4.01
CC(NC(=O)/C=C/c1c(-c2cccc(Cl)c2)nc2sc(C(F)(F)F)nn12)C(F)(F)F (stereo not shown) [Example 0094],pest or weed control at 500 g/ha,[2],100%
O=C(/C=C/c1c(-c2ccccc2Cl)nc2sc(C(F)(F)F)nn12)NOCC1CC1 [Example 0211],Physical data (logP),[1],3.18
O=C(/C=C/c1c(-c2ccccc2F)nc2sc(C(F)(F)F)nn12)N1CCOCC1 [Example 0507],Physical data: log P,[1],2.7
CC(C)C(C)NC(=O)/C=C/c1c(-c2ccc(F)cc2)nc2sc(C(F)(F)F)nn12 (stereo not shown) [Example 0316],Physical data: log P,[1],3.81
O=C(/C=C/c1c(-c2cccc(C(F)(F)F)c2)nc2sc(C(F)(F)F)nn12)N1CCOCC1 [Example 0436],Physical data: log P,[1],3.55
O=C(/C=C/c1c(-c2ccc(F)cc2)nc2sc(C(F)(F)F)nn12)N1CCCCC1 [Example 0364],Physical data: log P,[1],3.85
Cc1cn2c(/C=C/C(=O)NC(C)C(C)(C)C)c(-c3ccccc3Cl)nc2s1 (stereo not shown) [Example 0870],Physical data: logP,[1],3.17
